Measured values: PubChem BioAssay (NCI)
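Dose response: 5 concentrations. Exposure: 48 h. Format: 96-well plates. Endpoint: linear interpolation; highest concentration if not reached. Here, GI50 denotes the concentration required for 50% inhibition of growth. Definition used: TGI = concentration required for complete inhibition of growth.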

Columns and labels:
Assay in all cases: NCI-60 cell line screen, 48 h
[1] = tested on: MDA-MB-435
[2] = tested on: MALME-3M melanoma
[3] = tested on: SK-MEL-28 melanoma
[4] = tested on: ACHN renal
[5] = tested on: 786-0 renal
[6] = tested on: MOLT-4 leukemia
[7] = tested on: OVCAR-8 ovarian
[8] = tested on: KM12 colon
[9] = tested on: HT29 colon
[10] = tested on: TK-10 renal

SMILES	GI50 [1] [µM]	TGI [1] [µM]	GI50 [2] [µM]	TGI [2] [µM]	GI50 [3] [µM]	TGI [3] [µM]	GI50 [4] [µM]	TGI [4] [µM]	GI50 [5] [µM]	TGI [5] [µM]	GI50 [6] [µM]	TGI [6] [µM]	GI50 [7] [µM]	TGI [7] [µM]	GI50 [8] [µM]	TGI [8] [µM]	GI50 [9] [µM]	TGI [9] [µM]	GI50 [10] [µM]	TGI [10] [µM]
COc1cc(-c2nc(Nc3nc4ccccc4[nH]3)nc(N)c2C#N)cc(OC)c1OC	0.0886	16.7	21.7	> 80.1	19.1	> 100	14.5	> 100	20.2	> 100	18.2	> 100	28.9	> 100	0.714	> 100	0.877	24.1	30.7	> 100
COc1cccc(C2c3cc4c(cc3OC(C)(O)C2C)OCO4)c1O (stereo not given)	–	> 100	–	56.3	–	> 100	–	79.1	–	68.5	–	> 66.2	–	40.9	–	36.6	–	17.4	–	51
CC1=CC(=NC(=O)CBr)C=C/C1=N\S(=O)(=O)c1ccccc1	3.4	13.7	2.06	5.89	6.25	19.4	2.77	8.98	3.37	10.8	2.75	9.65	3.29	11.1	16.8	31.2	2.58	6.7	2.85	7.04
C/C=C(\C)C(=O)N[C@H]1CC[C@]2(C)C3CC[C@@]4(C)C(CC[C@@H]4C(C)N(C)C)C3CCC2[C@H]1OC(C)=O (stereo not given in full)	1.13	2.84	1.91	3.73	1.59	3.24	1.98	4.2	1.54	2.95	1.58	3.91	3.38	> 25.8	2	5.15	0.362	1.34	2.16	4.59
COc1ccccc1OCC(=O)Nc1sc2c(c1C(N)=O)CCC2	> 100	> 100	> 100	> 100	> 100	> 100	> 100	> 100	> 100	> 100	> 100	> 100	12.7	> 100	> 100	> 100	> 100	> 100	> 100	> 100
CCCN(CCC)C(=O)C1=Cc2ccc(-c3ccc(C(=O)N4CCCC4)cc3)cc2N=C(N)C1	2.51	7.58	8.32	23	8.91	24.8	8.13	50.9	14.7	42.3	10.5	64.3	16.1	68.5	5.01	21.4	4.28	28.6	19.6	70.1
CC(C)=CCC[C@H](C)[C@@H]1CC[C@]2(C)C3CC[C@]4(OC4(C)C)C(CCCO)[C@]3(C)CC[C@@]12C (stereo not given in full)	22.6	48.8	27.3	54.6	23.9	58.5	13.7	32.4	22.4	48.5	18.2	44.6	37.7	> 100	22.5	59.5	34	> 100	17.5	38.2
O=C(Nc1ccccc1O)c1cccc(NC2=C(Cl)C(=O)N(Cc3ccccc3)C2=O)c1	6.03	17.7	0.488	9.19	7.23	20.5	4.73	15.7	2.3	6.78	0.712	4.01	2.06	4.7	12.9	26.6	7.05	> 100	4.69	13.4
CN(C)c1ccc(N2Cc3ccccc3OC3=C2C(=O)c2c(O)ccc(O)c2C3=O)cn1	0.237	0.544	0.218	0.495	0.275	0.762	0.158	0.698	0.204	0.423	0.112	0.843	0.268	1.26	1.03	3.08	0.232	0.578	0.348	0.908
